Values quoted from earlier work as cited in patent publication US20100055040A1, “Optical Imaging Contrast Agents” (priority 2005, published 2010).

What was measured:
[1] = test system: ulcerated gastric mucosa; settings: humans; ulcerated vs unulcerated gastric mucosa
[2] = gastrointestinal tract

## α-D-glucopyranoside, β-D-fructofuranosyl-, octakis-(hydrogen sulfate), aluminum complex [Sucralfate]
[1]
  times more sucralfate binds to ulcerated gastric mucosa than to unulcerated mucosa: six to seven
[2]
  absorption by the body: only minimally absorbed
